In test [1] the target is T1, Alpha-fetoprotein (Rattus norvegicus) (UniProt P02773).
T1 sequence (whole entry): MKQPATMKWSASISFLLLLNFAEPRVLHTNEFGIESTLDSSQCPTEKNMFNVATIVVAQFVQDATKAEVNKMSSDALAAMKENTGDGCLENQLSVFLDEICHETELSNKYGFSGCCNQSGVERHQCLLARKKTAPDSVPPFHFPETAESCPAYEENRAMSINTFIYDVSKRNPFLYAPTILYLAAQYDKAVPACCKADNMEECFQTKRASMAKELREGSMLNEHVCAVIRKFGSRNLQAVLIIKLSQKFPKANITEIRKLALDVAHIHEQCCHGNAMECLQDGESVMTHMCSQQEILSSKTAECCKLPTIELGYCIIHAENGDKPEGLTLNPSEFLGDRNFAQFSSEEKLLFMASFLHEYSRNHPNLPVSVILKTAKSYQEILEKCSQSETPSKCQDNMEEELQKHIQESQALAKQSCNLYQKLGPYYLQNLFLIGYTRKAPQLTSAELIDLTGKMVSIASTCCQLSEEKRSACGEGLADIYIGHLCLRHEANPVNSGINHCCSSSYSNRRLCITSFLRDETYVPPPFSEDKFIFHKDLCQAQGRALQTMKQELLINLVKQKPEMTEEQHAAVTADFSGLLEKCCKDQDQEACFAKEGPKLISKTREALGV
In words: Binding affinity against Alphafetoprotein (AFP), in rodents. Details: reference not given here.

Test [2] deals with T2, Sex hormone-binding globulin (Homo sapiens) (UniProt P04278).
T2 sequence (whole entry): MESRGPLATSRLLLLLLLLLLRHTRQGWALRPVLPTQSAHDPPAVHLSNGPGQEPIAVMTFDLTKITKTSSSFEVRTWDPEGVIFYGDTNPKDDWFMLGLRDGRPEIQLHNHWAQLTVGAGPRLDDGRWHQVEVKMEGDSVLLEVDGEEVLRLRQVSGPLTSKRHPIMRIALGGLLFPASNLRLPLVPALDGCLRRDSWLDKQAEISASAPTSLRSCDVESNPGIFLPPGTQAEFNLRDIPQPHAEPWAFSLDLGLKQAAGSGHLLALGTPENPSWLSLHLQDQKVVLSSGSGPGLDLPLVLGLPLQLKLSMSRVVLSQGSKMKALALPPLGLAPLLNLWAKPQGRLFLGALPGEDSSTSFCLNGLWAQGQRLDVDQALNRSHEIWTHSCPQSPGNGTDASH
In words: Binding affinity against Sex steroid binding protein(SBP) of human serum. Also noted: reference not given here.

For the molecule `C#C[C@]1(O)[C@H](F)C[C@H]2[C@@H]3CCc4cc(O)ccc4[C@H]3CC[C@@]21C`, the relative binding affinity (RBA) in test [1] was determined as 0.94; in test [2], 0.43.
On the same counts, the results for `CC[C@H]1C[C@]2(C)[C@@H](O)CC[C@H]2[C@@H]2CCc3cc(O)ccc3[C@@H]12` are 1.21 and 40.8.
On the same counts, the results for `CO[C@H]1C[C@]2(C)[C@@H](O)[C@H](F)C[C@H]2[C@@H]2CCc3cc(O)ccc3[C@H]21` are 0.51 and 0.53.
For `CC[C@H]1C[C@]2(C)[C@@H](O)[C@H](F)C[C@H]2[C@@H]2CCc3cc(O)ccc3[C@@H]12`, in that order: 1.47 and 2.24.
With `C#C[C@]1(O)CC[C@H]2[C@@H]3CCc4cc(O)ccc4[C@H]3CC[C@@]21C`, the relative binding affinity (RBA) was found to be 3.51 in test [1] and 1.81 in test [2].
For `C[C@]12CC[C@@H]3c4ccc(O)cc4CC[C@H]3[C@@H]1CC[C@@H]2O`, in that order: 100 and 100.
On the same counts, the results for `CO[C@H]1C[C@]2(C)[C@@H](O)CC[C@H]2[C@@H]2CCc3cc(O)ccc3[C@H]21` are 0.26 and 1.72.
For `C[C@]12CC[C@@H]3c4ccc(O)cc4CC[C@H]3[C@@H]1C[C@@H](F)[C@@H]2O`, in that order: 101 and 9.5.

(Values after ChEMBL document CHEMBL1125025, “11 beta-methoxy-, 11 beta-ethyl- and 17 alpha-ethynyl-substituted 16 alpha-fluoroestradiols: receptor-based imaging agents with enhanced uptake efficiency and selectivity” (J Med Chem, 1990).)
